Laboratory results from patent US11110103B2, “Inhibitors of glucocorticoid receptor” (ORIC Pharmaceuticals, Inc., priority 2015, dated 2021).

Test system: AR
Test: In Vitro AR Agonism Assay (LNAR reporter cell line)
Type: cell-based
Settings: LNAR cells, RPMI + 10% CSS, 18-24 hrs; maximum response of Mifepristone set to 1
Method: Example 6: In Vitro AR Agonism Assay
The AR agonism assay was done in the LNAR reporter cell line which has overexpressed AR and 4XARE-Luc genes. This cell line is sensitive to even minor partial AR agonism activity in hormone-deprived media (CSS). The assays were done in RPMI (without phenol red)+10% CSS using 6000 LNAR cells/well in 384-well plates and compounds were incubated with cells in […] incubator for 18-24 hrs. OneGlo reagent (25 uL/well) was added and plates were read with luminometer within 3 minutes.
To gauge the AR partial agonism activity, Mifepristone is included as a standard in the assay. AR agonism assay results are quantified by determining the ratio of the maximum response of individual compounds to the maximum response of Mifepristone (arbitrarily set to 1). Values of Table 3 are reported as Relative Maximum Response to Mifepristone. This general trend of AR agonism was shown for the class of compounds described herein.

Compound | Relative Maximum Response to Mifepristone
CC#C[C@]1(O)CC[C@H]2[C@@H]3CCC4=CC(=O)CCC4=C3[C@@H](c3ccc(S(=O)(=O)N4CCCCC4)cc3)C[C@@]21C [drawing 241] | A (A: ≤0.4)
CC#C[C@]1(O)CC[C@H]2[C@@H]3CCC4=CC(=O)CCC4=C3[C@@H](c3ccc(S(=O)(=O)C(C)(C)C)cc3)C[C@@]21C [drawing 242] | A (A: ≤0.4)
CC#C[C@]1(O)CC[C@H]2[C@@H]3CCC4=CC(=O)CCC4=C3[C@@H](c3cccc(C(C)C)c3)C[C@@]21C [drawing 243] | A (A: ≤0.4)
CC#C[C@]1(O)CC[C@H]2[C@@H]3CCC4=CC(=O)CCC4=C3[C@@H](c3cccc(OCC)c3)C[C@@]21C [drawing 244] | A (A: ≤0.4)
CC#C[C@]1(O)CC[C@H]2[C@@H]3CCC4=CC(=O)CCC4=C3[C@@H](c3ccc(C)c(C)c3)C[C@@]21C [drawing 245] | A (A: ≤0.4)
CC#C[C@]1(O)CC[C@H]2[C@@H]3CCC4=CC(=O)CCC4=C3[C@@H](c3cc(F)cc(F)c3)C[C@@]21C [drawing 246] | A (A: ≤0.4)
CC#C[C@]1(O)CC[C@H]2[C@@H]3CCC4=CC(=O)CCC4=C3[C@@H](c3ccc(F)c(C#N)c3)C[C@@]21C [drawing 247] | B (B: >0.4)
CC#C[C@]1(O)CC[C@H]2[C@@H]3CCC4=CC(=O)CCC4=C3[C@@H](c3ccc(Cl)c(C(C)C)c3)C[C@@]21C [drawing 248] | A (A: ≤0.4)
CC#C[C@]1(O)CC[C@H]2[C@@H]3CCC4=CC(=O)CCC4=C3[C@@H](c3ccc(C(C)C)c(N(C)C)c3)C[C@@]21C [drawing 249] | A (A: ≤0.4)
CC#C[C@]1(O)CC[C@H]2[C@@H]3CCC4=CC(=O)CCC4=C3[C@@H](c3ccc(N(C)C)c(C(C)C)c3)C[C@@]21C [drawing 250] | A (A: ≤0.4)
CC#C[C@]1(O)CC[C@H]2[C@@H]3CCC4=CC(=O)CCC4=C3[C@@H](c3ccc(Cl)c(OC)c3)C[C@@]21C [drawing 251] | A (A: ≤0.4)
CC#C[C@]1(O)CC[C@H]2[C@@H]3CCC4=CC(=O)CCC4=C3[C@@H](c3cc(F)c(C)c(F)c3)C[C@@]21C [drawing 252] | A (A: ≤0.4)
CC#C[C@]1(O)CC[C@H]2[C@@H]3CCC4=CC(=O)CCC4=C3[C@@H](c3ccc4c(c3)OCCO4)C[C@@]21C [drawing 253] | A (A: ≤0.4)
CC#C[C@]1(O)[C@H](CC)C[C@H]2[C@@H]3CCC4=CC(=O)CCC4=C3[C@@H](c3ccc(N(C)C)cc3)C[C@@]21C [drawing 254] | A (A: ≤0.4)
CC#C[C@]1(O)[C@H](C)C[C@H]2[C@@H]3CCC4=CC(=O)CCC4=C3[C@@H](c3ccc(S(=O)(=O)N4CCCCC4)cc3)C[C@@]21C [drawing 255] | A (A: ≤0.4)
CC#C[C@]1(O)[C@H](C)C[C@H]2[C@@H]3CCC4=CC(=O)CCC4=C3[C@@H](c3ccc(N4CCOC[C@H]4C)cc3)C[C@@]21C [drawing 256] | B (B: >0.4)

Same assay, conditions: in concentrations as low as 10 nM

Compound | AR partial agonism
CC#C[C@]1(O)CC[C@H]2[C@@H]3CCC4=CC(=O)CCC4=C3[C@@H](c3ccc(N(C)C)cc3)C[C@@]21C [Mifepristone, reference compound] | strong partial AR agonism

Molecular target: T1, GR (Homo sapiens, UniProt P04150)
T1 construct: expressed in transfected cells; host or cells: CHO-K1 (CHO-K1-GR-MMTV-Luc reporter cells)
T1 sequence (P04150 1-777): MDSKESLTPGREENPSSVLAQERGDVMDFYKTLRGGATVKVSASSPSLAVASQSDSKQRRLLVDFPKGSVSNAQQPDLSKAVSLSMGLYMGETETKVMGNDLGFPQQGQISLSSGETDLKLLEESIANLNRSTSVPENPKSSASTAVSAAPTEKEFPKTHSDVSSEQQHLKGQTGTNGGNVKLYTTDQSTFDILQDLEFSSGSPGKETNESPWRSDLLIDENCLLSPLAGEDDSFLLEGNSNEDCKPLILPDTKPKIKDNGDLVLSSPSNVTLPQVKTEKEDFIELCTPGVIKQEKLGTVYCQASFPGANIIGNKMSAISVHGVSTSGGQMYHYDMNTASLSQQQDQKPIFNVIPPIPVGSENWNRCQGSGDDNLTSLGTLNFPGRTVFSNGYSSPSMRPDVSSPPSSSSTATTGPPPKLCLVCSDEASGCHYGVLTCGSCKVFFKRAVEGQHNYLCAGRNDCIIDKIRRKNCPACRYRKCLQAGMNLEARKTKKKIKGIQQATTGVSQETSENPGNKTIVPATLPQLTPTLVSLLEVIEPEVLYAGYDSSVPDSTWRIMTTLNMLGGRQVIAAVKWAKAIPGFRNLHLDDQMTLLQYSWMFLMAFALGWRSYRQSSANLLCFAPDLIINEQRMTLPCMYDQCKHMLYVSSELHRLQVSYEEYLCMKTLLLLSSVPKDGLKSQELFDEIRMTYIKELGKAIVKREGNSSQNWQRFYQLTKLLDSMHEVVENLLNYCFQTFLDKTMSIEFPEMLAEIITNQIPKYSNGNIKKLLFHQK
Test: In Vitro GR Luciferase Reporter Assay (antagonist assay)
Type: cell-based
Settings: CHO-K1-GR-MMTV-Luc reporter cells, 10 nM Dexamethasone, 18-24 hours
Method: Cell Line: CHO-K1-GR-MMTV-Luc reporter cells
Culture Media: DMEM (with phenol red)+10% FBS
Assay Media: DMEM (without phenol red)+10% CSS
Culture CHO-K1-GR-MMTV-Luc reporter cells in 15 cm plates in Culture Media at conditions less than 90% confluence.
Prepare 200×DMSO 1:5 serial dilutions of control and test compounds in 96-well non-sterile V bottom plate in DMSO, 8 serial dilutions for each compound.
Add compounds: 5 ul of assay media diluted compounds were added to appropriate wells and followed a quick spin (1000 rpm, 10 sec) to bring media and cells to the bottom of plate. The plates were covered with SealMate film to avoid evaporation and placed in 37° C. incubator for approximately 18-24 hours.
Read plates: Equilibrate appropriate amount of Promega OneGlo luciferase reagent to room temperature. Remove the plates from incubator and add 25 uL of OneGlo reagent/well by multiple channel pipette and read the plates with Tecan F500 luminometer within 3 minutes.
The ability of the compounds disclosed herein to inhibit GR activity was quantified and the respective IC50 value was determined.

Compound | IC50 [nM]
CC#C[C@]1(O)CC[C@H]2[C@@H]3CCC4=CC(=O)CCC4=C3[C@@H](c3ccc(C)c(C)c3)C[C@@]21C [drawing 192] | < 100
CC#C[C@]1(O)CC[C@H]2[C@@H]3CCC4=CC(=O)CCC4=C3[C@@H](c3cc(F)cc(F)c3)C[C@@]21C [drawing 196] | < 100
CC#C[C@]1(O)CC[C@H]2[C@@H]3CCC4=CC(=O)CCC4=C3[C@@H](c3ccc(F)c(C#N)c3)C[C@@]21C [drawing 199] | < 100
CC#C[C@]1(O)CC[C@H]2[C@@H]3CCC4=CC(=O)CCC4=C3[C@@H](c3ccc(Cl)c(C(C)C)c3)C[C@@]21C [drawing 200] | < 100
CC#C[C@]1(O)CC[C@H]2[C@@H]3CCC4=CC(=O)CCC4=C3[C@@H](c3ccc(C(C)C)c(N(C)C)c3)C[C@@]21C [drawing 201] | < 100
CC#C[C@]1(O)CC[C@H]2[C@@H]3CCC4=CC(=O)CCC4=C3[C@@H](c3ccc(N(C)C)c(C(C)C)c3)C[C@@]21C [drawing 203] | > 100
CC#C[C@]1(O)CC[C@H]2[C@@H]3CCC4=CC(=O)CCC4=C3[C@@H](c3ccc(Cl)c(OC)c3)C[C@@]21C [drawing 204] | > 100
CC#C[C@]1(O)CC[C@H]2[C@@H]3CCC4=CC(=O)CCC4=C3[C@@H](c3cc(F)c(C)c(F)c3)C[C@@]21C [drawing 209] | < 100
CC#C[C@]1(O)CC[C@H]2[C@@H]3CCC4=CC(=O)CCC4=C3[C@@H](c3ccc4c(c3)OCCO4)C[C@@]21C [drawing 210] | < 100
CC#C[C@]1(O)[C@H](CC)C[C@H]2[C@@H]3CCC4=CC(=O)CCC4=C3[C@@H](c3ccc(N(C)C)cc3)C[C@@]21C [drawing 225] | < 100
CC#C[C@]1(O)[C@H](C)C[C@H]2[C@@H]3CCC4=CC(=O)CCC4=C3[C@@H](c3ccc(S(=O)(=O)N4CCCCC4)cc3)C[C@@]21C [drawing 226] | < 100
CC#C[C@]1(O)[C@H](C)C[C@H]2[C@@H]3CCC4=CC(=O)CCC4=C3[C@@H](c3ccc(N4CCOC[C@H]4C)cc3)C[C@@]21C [drawing 227] | < 100
